Entries after “also recorded” stand apart in the source; their conditions may differ.
Columns and labels:
HUVEC [1] = assay: Cell viability (PI+ cells) in dye transfer assay; type: cell-based; conditions: PMA 100 nM or 18ßGRR 100 µM, 60 min; % of PI+ cells
Experimental: The assay is described in detail in [48]; it is an adaption of the traditional fluorescence microscopy-based scrape loading dye transfer (sl-dt) technique. Briefly, HUVEC in 24 well trays were rinsed into +Ca+Mg-PBS. The solution was then replaced with fresh +Ca+Mg-PBS supplemented with Lucifer Yellow (LY; 1 mg/mL), propidium iodide (PI; 15 μM) and Hoechst 33,342 (90 μM) (dye transfer buffer). Immediately after addition of the dye transfer buffer, 3 parallel cuts in the cell monolayer in the central part of each well in the 24 wells were made using a micro scalpel knife with a flat edge stainless steel blade. […]
Data analysis was carried out in the open-source-based software program Fiji ImageJ. A custom-made macro (Cut_Analyzer.ijm) published in the Supplementary Materials to [48] was used for the automated quantitation of gap junction intercellular communication using images acquired for the LY signal. […]
Analysis of cell number. To determine the number of cells per field of view we counted the number of Hoechst stained nuclei using a simple macro (Nuclei count.ijm) recorded […]
Counting cell nuclei using Fiji ImageJ. […] Images were then converted to a mask, a Watershed applied to identify and separate overlapping nuclei and objects counted using the Analyze particles function. […]
Analysis of cell viability. […] Cell viability was expressed as the fraction of cells negative for PI. […]

[2] = system: gap junction coupling in HUVEC; assay: Multiparametric scrape loading-dye transfer assay (Lucifer Yellow spread); type: cell-based, human; conditions: for LY spread after scratch wounding: 60 min pre-treatment, PMA 100 nM or 18ßGRR 100 µM, 15 min post-scratch; for LY spread in the absence of ionomycin stimulation: peptide 7 µM and 17.9 µM, 8 min pre-treatment + 8 min assay; for LY spread in the absence of ionomycin stimulation / LY spread after ionomycin pre-treatment in the presence of peptide: Ca2+-containing media; for LY spread after ionomycin pre-treatment in the presence of peptide: peptide 7 μM and 17.9 μM, 8 min + 8 min
Experimental: The assay is described in detail in [48]; it is an adaption of the traditional fluorescence microscopy-based scrape loading dye transfer (sl-dt) technique. Briefly, HUVEC in 24 well trays were rinsed into +Ca+Mg-PBS. The solution was then replaced with fresh +Ca+Mg-PBS supplemented with Lucifer Yellow (LY; 1 mg/mL), propidium iodide (PI; 15 μM) and Hoechst 33,342 (90 μM) (dye transfer buffer). Immediately after addition of the dye transfer buffer, 3 parallel cuts in the cell monolayer in the central part of each well in the 24 wells were made using a micro scalpel knife with a flat edge stainless steel blade. The cells were then incubated at 37 °C for 8 or 15 min, as specified, before being washed twice with +Ca+Mg-PBS to remove the dye transfer buffer and then fixed in 3% PFA in PBS. Fresh dye transfer buffer was used for each experiment and the plates were stored in the dark at 4 °C.
For quantitative analysis of dye transfer and cell viability, images were acquired from 2 to 3 regions within each cut (6–9 measurements per well) using an EVOS M5000 microscope (Invitrogen, Waltham, MA, USA) equipped with a 10 × 0.3 NA air objective and EVOS LED light cubes for bright field imaging, FITC, RedX and DAPI. Images were acquired sequentially and exported to ImageJ for processing.
Phorbol 12-myristate 13-acetate (PMA) or 18-β-glycyrrhetinic acid (18BGRR) was made up in dimethysulphoxide (DMSO) to a 10 mM or 50 mM stock, respectively, and diluted into HGM to a final concentration of 100 nM or 100 µM, respectively. Cells were incubated in PMA or 18BGRR acid containing solution for 60 min at 37 °C. The PMA or 18BGRR solution was then carefully removed and the cells were washed once in +Ca+Mg-PBS. The PBS was then replaced with the dye transfer buffer (see above) and immediately 3 parallel cuts were made in the cell monolayer in the central part of each well using a micro scalpel knife with a flat edge stainless steel blade. For each experiment drug treatments were carried out in triplicate wells each with 3 cuts per well. Cells were then processed as described above. For analysis of the Ca^2+ dependency of gap junction coupling, HUVEC were incubated in either +Ca+Mg-PBS (+Ca) or -Ca+Mg +0.2 mM EGTA (-Ca) containing PBS and stimulated with vehicle (0.001% DMSO), or 2 μM ionomycin for 8 min. Cells were then transferred to dye transfer buffer made using +Ca or −Ca PBS, supplemented with vehicle or 2 μM ionomycin, and 3 parallel cuts were made in cell monolayers in each well. Cells were incubated for a further 8 min prior to fixation. […] A stock solution of 3.6 mM was made to generate working concentrations of 6–18 µM.
Data analysis was carried out in the open-source-based software program Fiji ImageJ. A custom-made macro (Cut_Analyzer.ijm) published in the Supplementary Materials to [48] was used for the automated quantitation of gap junction intercellular communication using images acquired for the LY signal. Analysis of total cell number (Hoechst channel) and cell viability (propidium iodide channel) was made using custom made macros ([48] and Supplementary Methods).

TA-CaM = TA-CaM (Homo sapiens, UniProt P0DP23); conditions: Ca2+ titration of TA-CaM alone or with peptide
Experimental: The binding curves were fitted to the Hill equation to obtain Kd and Hill coefficient values (n) (Table 2).
The fluorescence was corrected for dilution and [Ca^2+] concentration was calculated using Maxchelator software. The data were fitted to the Hill equation with specific binding (y = Bmax∗x^n/(Kd^n + x^n)) using GraphPad Prism 9.

apo-DA-CaM = apo-DA-CaM (Homo sapiens, UniProt P0DP23, T111C/T35C); assay: Stopped-flow association and dissociation kinetics with apo-DA-CaM (with and without 15% TFE); conditions: 500 nM DA-CaM with 10 µM mTrp, 5 mM EGTA, mixed with 300 µM CaM, 20 °C
Experimental: We were interested to see if we can detect apo-CaM binding to Cx CL2 peptides using DA-CaM, the conformation of which is insensitive to [Ca^2+] changes, but which indicates changes in the distance between the N- and C-lobe with high sensitivity.
The kinetics of Ca^2+/DA-CaM and DA-CaM interactions with Cx CL2 peptides was measured using a TgK Scientific KinetAsyst™ double-mixing stopped-flow apparatus (TgK Scientific Ltd., Bradford-on-Avon, UK) in single mixing mode. The fluorescence was excited at 340 nm and the emission was detected by a photomultiplier tube with a long pass filter (>400 nm). […] All concentrations given are those in the mixing chamber. Data shown are averages of 3 to 5 repeats. All experiments were carried out at 20 °C. Data were analysed using Kinetic Studio software (TgK Scientific Ltd., Bradford-on-Avon, UK).

HUVEC [3] = assay: Fura-2 epifluorescence imaging of [Ca2+]i; type: cell-based, human; conditions: ionomycin 2 µM, fura-2 loaded HUVEC
Experimental: HUVEC were grown on 24 mm square uncoated glass coverslips in growth medium. For Fura-2 loading, the cells were transferred into Hanks solution (140 mM NaCl, 5 mM KCl, 1.8 mM CaCl2, 2 mM MgCl2, 10 mM glucose, 10 mM HEPES-NaOH pH 7.4) supplemented with 2.5 µM Fura-2AM (Molecular Probes, Eugene, Oregon, USA) diluted from a stock solution of 5 mM Fura-2AM in DMSO with 2.0% Pluoronic F-127. Cells were incubated at room temperature in the dark for 20 min before being transferred into fresh Hanks solution and further maintained in the dark at RT until use. Cells were transferred to the stage of an Olympus IX71 inverted fluorescence microscope and maintained at 32–34 °C. The imaging system comprised an excitation monochromator (Optoscan, Cairn Research), U-Plan-Apo ×100 1.35 NA objective and an Ixon EMCCD camera (Andor). Fura-2 was illuminated sequentially with 355 ± 5 nm and 380 ± 5 nm light and wavelength switching synchronised with image capture using WinFluor software (Dr John Dempster, Strathclyde University). The EMCCD camera was operated in frame transfer mode at full gain and cooled to −70 °C. Full frame (512 by 512 pixels) images were acquired at 30 frames/s. Ionomycin was applied by droplet application.

CaM = CaM binding signals of Cx32 CT peptide

Compound | Cell viability following drug treatments (HUVEC [1]) | LY spread after scratch wounding [2] | LY spread in the absence of ionomycin stimulation [2] | LY spread after ionomycin pre-treatment in the presence of peptide ([2]; ionomycin 2 µM) | also measured
CCCCCCCCCCCCCC(=O)O[C@@H]1[C@@H](C)[C@@]2(O)[C@@H](C=C(CO)C[C@]3(O)C(=O)C(C)=C[C@@H]23)[C@@H]2C(C)(C)[C@]12OC(C)=O [PMA, 12-phorbol 13-myristate acetate] | No evidence for decreased cell viability | significantly reduced LY spread | – | – | –
CC1(C)[C@@H](O)CC[C@]2(C)[C@H]3C(=O)C=C4[C@@H]5C[C@@](C)(C(=O)O)CC[C@]5(C)CC[C@@]4(C)[C@]3(C)CC[C@@H]12 [18ßGRR, 18-β-glycyrrhetinic acid] | No evidence for decreased cell viability | significantly reduced LY spread | – | – | –
N-[myr]-RRKWQKTGHAVRAIGRL-amide [mTrp] | – | – | no significant difference in LY spread | reduced the inhibition of LY spread; also recorded: prevented the Ca^2+-induced block | Hill Coefficient n TA-CaM (TA-CaM): 1.3 ± 0.1; Dissociation from apo-DA-CaM, fast phase (apo-DA-CaM): 130 s⁻¹; Dissociation from apo-DA-CaM, slow phase (apo-DA-CaM): 0.9 s⁻¹
C[C@H](CCC(=O)O)C[C@H](C)C[C@H](C)C(=O)/C=C(\O)[C@H](C)C[C@H](C)C/C=C/[C@@H](C)[C@@H](O)[C@@H](C)[C@@H](O)C[C@@H]1CC[C@@](C)([C@H]2CC[C@@](C)([C@@H](C)O)O2)O1 [ionomycin] | – | – | – | – | Effect on LY spread when external Ca^2+ omitted ([2]; ionomycin 2 µM, 8 min, external Ca2+ omitted): greatly reduced; LY spread after scratch formation ([2]; ionomycin 2 µM, 8 min pre-treatment, external Ca2+ present, 8 min LY spread): significantly reduced the spread of LY; also recorded: completely blocked; Change in [Ca^2+]i (fura-2 ratio) (HUVEC [3]): initial fast increase in [Ca^2+]i
N-[myr]-RRKEQKTGHAVRAIGRE-amide [control peptide] | – | – | no significant difference in LY spread | significantly reduced LY spread | –
EINKLLSEQDGSLKDILRRS [Cx32 CT peptide] | – | – | – | – | CaM binding signal (CaM): unable to detect any signals indicating CaM binding

From paper PMC9961272, “Ca^2+-Dependent and -Independent Calmodulin Binding to the Cytoplasmic Loop of Gap Junction Connexins” (International Journal of Molecular Sciences, 2023)
